Tests used:
BT-474 Tam1 [1] = experiment: drug sensitivity score (DSS) (DSS (dimensionless)); higher = more sensitive; extreme values may be limits of the assay; details: 4-OH-tamoxifen in medium 1 µM; 72 h
Outline: (§1)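 After seeding into 384-well plates with library drugs at five concentrations spanning a 10 000-fold range, breast cancer cell lines and their resistant derivatives were incubated 72 h at 37 °C. Resistant lines received medium with 1 μM of the selecting drug. CellTiter-Glo signal was read on a PHERAstar and scaled to vehicle-only and positive controls. Drug sensitivity score, relative IC50 (the curve midpoint) and top-dose inhibition came from logistic fits run in the Breeze pipeline.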

BT-474 Tam2 [2] = experiment: as above; details: 4-OH-tamoxifen in medium 1 µM; 72 h
Outline: as §1

BT-474 [3] = experiment: as above; details: 72 h
Outline: as §1

MCF-7 Tam1 = experiment: as above; details: 4-OH-tamoxifen in medium 1 µM; 72 h
Outline: as §1

MCF-7 [4] = experiment: as above; details: 72 h
Outline: as §1

T-47D Tam1 [5] = experiment: as above; details: 4-OH-tamoxifen in medium 1 µM; 72 h
Outline: as §1

T-47D Tam2 [6] = experiment: as above; details: 4-OH-tamoxifen in medium 1 µM; 72 h
Outline: as §1

T-47D [7] = experiment: as above; details: 72 h
Outline: as §1

ZR-75-1 Tam1 [8] = experiment: as above; details: 4-OH-tamoxifen in medium 1 µM; 72 h
Outline: as §1

ZR-75-1 Tam2 [9] = experiment: as above; details: 4-OH-tamoxifen in medium 1 µM; 72 h
Outline: as §1

ZR-75-1 [10] = experiment: as above; details: 72 h
Outline: as §1

BT-474 Tam1 [11] = experiment: relative IC50 (midpoint of fitted logistic curve, plateau may be below 50% inhibition; CellTiter-Glo viability); higher = less potent; details: 4-OH-tamoxifen in medium 1 µM; 72 h
Outline: as §1

MCF-7 [12] = experiment: as above; details: 72 h
Outline: as §1

T-47D Tam1 [13] = experiment: as above; details: 4-OH-tamoxifen in medium 1 µM; 72 h
Outline: as §1

T-47D Tam2 [14] = experiment: as above; details: 4-OH-tamoxifen in medium 1 µM; 72 h
Outline: as §1

T-47D [15] = experiment: as above; details: 72 h
Outline: as §1

ZR-75-1 Tam1 [16] = experiment: as above; details: 4-OH-tamoxifen in medium 1 µM; 72 h
Outline: as §1

ZR-75-1 Tam2 [17] = experiment: as above; details: 4-OH-tamoxifen in medium 1 µM; 72 h
Outline: as §1

ZR-75-1 [18] = experiment: as above; details: 72 h
Outline: as §1

BT-474 Tam2 [19] = experiment: as above; details: 4-OH-tamoxifen in medium 1 µM; 72 h
Outline: as §1

BT-474 [20] = experiment: as above; details: 72 h
Outline: as §1

Row | SMILES | drug sensitivity score (BT-474 Tam1 [1]) | drug sensitivity score (BT-474 Tam2 [2]) | drug sensitivity score (BT-474 [3]; 4-OH-tamoxifen in medium 0 µM) | drug sensitivity score (BT-474 [3]; 4-OH-tamoxifen in medium 1 µM) | drug sensitivity score (MCF-7 Tam1) | drug sensitivity score (MCF-7 [4]; 4-OH-tamoxifen in medium 0 µM) | drug sensitivity score (MCF-7 [4]; 4-OH-tamoxifen in medium 1 µM) | drug sensitivity score (T-47D Tam1 [5]) | drug sensitivity score (T-47D Tam2 [6]) | drug sensitivity score (T-47D [7]; 4-OH-tamoxifen in medium 0 µM) | drug sensitivity score (T-47D [7]; 4-OH-tamoxifen in medium 1 µM) | drug sensitivity score (ZR-75-1 Tam1 [8]) | drug sensitivity score (ZR-75-1 Tam2 [9]) | drug sensitivity score (ZR-75-1 [10]; 4-OH-tamoxifen in medium 0 µM) | drug sensitivity score (ZR-75-1 [10]; 4-OH-tamoxifen in medium 1 µM) | relative IC50 (BT-474 Tam1 [11]) [nM] | relative IC50 (MCF-7 [12]; 4-OH-tamoxifen in medium 0 µM) [nM] | relative IC50 (MCF-7 [12]; 4-OH-tamoxifen in medium 1 µM) [nM] | relative IC50 (T-47D Tam1 [13]) [nM] | relative IC50 (T-47D Tam2 [14]) [nM] | relative IC50 (T-47D [15]; 4-OH-tamoxifen in medium 0 µM) [nM] | relative IC50 (ZR-75-1 Tam1 [16]) [nM] | relative IC50 (ZR-75-1 Tam2 [17]) [nM] | relative IC50 (ZR-75-1 [18]; 4-OH-tamoxifen in medium 0 µM) [nM] | relative IC50 (ZR-75-1 [18]; 4-OH-tamoxifen in medium 1 µM) [nM] | relative IC50 (BT-474 Tam2 [19]) [nM] | relative IC50 (BT-474 [20]; 4-OH-tamoxifen in medium 0 µM) [nM] | relative IC50 (BT-474 [20]; 4-OH-tamoxifen in medium 1 µM) [nM] | relative IC50 (T-47D [15]; 4-OH-tamoxifen in medium 1 µM) [nM]
1 | OC[C@H]1O[C@@H](n2cnc3c2N=CNC[C@H]3O)C[C@@H]1O [Pentostatin] | 1.97 | 0.106 | 0.324 | 0.0318 | 0.721 | 4.26 | 2.79 | 4.83 | 3.19 | 3.58 | 2.45 | 2.62 | 3.72 | 4.39 | 3.83 | 2110 | 1540 | 1320 | 1320 | 1450 | 1900 | 2930 | 1310 | 1580 | 1140 |  |  |  | 
2 | O=C(Cc1ccc(-c2ccc(OCCN3CCOCC3)cc2)cn1)NCc1ccccc1 [KX2-391] | 22 | 19.7 | 12.3 | 21.8 | 0 | 11.2 | 10.5 | 10.6 | 11.3 | 2.76 | 4.36 | 3.06 | 4.76 | 11.5 | 4.21 | 80.2 | 86.8 | 189 | 498 | 91.9 | 1600 | 2190 | 1110 | 53.1 | 779 | 155 | 53.6 | 78 | 
3 | O=C(CCCCCCC(=O)Nc1ccccc1)NO [Vorinostat] | 6.36 | 7.23 | 5.53 | 10.5 | 0.897 | 8.23 | 8.2 | 5.24 | 2.19 | 5.73 | 4.3 | 3.29 | 2.51 | 1.99 | 1.27 | 2430 | 1430 | 1330 | 1650 | 3060 | 2630 | 1650 | 2270 | 2900 | 3660 | 1890 | 2310 | 1090 | 3670
4 | CC(C)C[C@@H](C(=O)N[C@H](C(=O)OC1CCCC1)c1ccccc1)[C@H](O)C(=O)NO [Tosedostat (CHR 2797)] | 3.46 | 1.07 | 4 | 5.75 | 0 | 3.93 | 3.62 | 5.48 | 5.12 | 1.5 | 0.354 | 2.61 | 5.85 | 4.86 | 3.37 | 1190 | 939 | 1350 | 768 | 850 | 3240 | 829 | 242 |  |  |  |  | 1250 | 
5 | CCCCCCCCc1ccc(CCC(N)(CO)CO)cc1 [Fingolimod] | 4.13 | 4.99 | 4.44 | 4.21 | 0.0112 | 5.74 | 3.17 | 2.83 | 2.59 | 2.91 | 4.24 | 2.18 | 2.69 | 1.58 | 2.36 | 4130 | 2890 | 3910 | 3780 | 3860 | 4090 | 3370 | 3490 | 3930 | 3710 | 3390 | 3770 | 4050 | 3840
6 | Nc1nc2[nH]cnc2c(=S)[nH]1 [Thioguanine] | 0.758 | 0.61 | 0.0001 | 1.03 | 1.96 | 4.8 | 4.57 | 2.75 | 2.48 | 1.83 | 0.681 | 3.48 | 2.86 | 4.81 | 1.76 |  | 1750 | 1350 | 3070 | 2660 | 3040 | 1420 | 1440 | 1080 | 2690 |  |  |  | 
7 | CCCCC(=O)OCC(=O)[C@]1(O)Cc2c(O)c3c(c(O)c2[C@@H](O[C@H]2C[C@H](NC(=O)C(F)(F)F)[C@H](O)[C@H](C)O2)C1)C(=O)c1c(OC)cccc1C3=O [Valrubicin] | 4.26 | 2.37 | 2.57 | 4.06 | 0.994 | 5.32 | 8.1 | 7.66 | 6.34 | 7.72 | 5.96 | 7.34 | 9.1 | 8.2 | 5.85 | 3120 | 1450 | 1270 | 1100 | 1380 | 768 | 1280 | 1130 | 554 | 1320 | 4180 | 2640 | 3340 | 1530
